According to BindingDB's records for doi:10.1016/S0960-894X(01)80381-4 (n/a, 1994):

Experiment: Inhibition of 10 uM ADP-induced human gel filtered platelet aggregation with 0.1 mg/mL human fibrinogen

Row | IC50 | SMILES
1 | 10000 µM | O=C(O)CCN1Cc2ccc(C(=O)NCCC3CCNCC3)cc2C1=O [3-[1-Oxo-6-(2-piperidin-4-yl-ethylcarbamoyl)-1,3-dihydro-isoindol-2-yl]-propionic acid]
2 | 330 µM | O=C(O)CCNC(=O)c1cccc(C(=O)NCC2CCNCC2)c1 [3-{3-[(Piperidin-4-ylmethyl)-carbamoyl]-benzoylamino}-propionic acid]
3 | 25 µM | O=C(O)CCNC(=O)c1ccc2c(c1)C(=O)N(CCC1CCNCC1)C2 [3-{[3-Oxo-2-(2-piperidin-4-yl-ethyl)-2,3-dihydro-1H-isoindole-5-carbonyl]-amino}-propionic acid(L-709780)]
4 | 2300 µM | O=C(O)CCNC(=O)c1ccc2c(c1)C(=O)C(CCC1CCNCC1)C2 (centres undefined) [3-{[3-Oxo-2-(2-piperidin-4-yl-ethyl)-indane-5-carbonyl]-amino}-propionic acid]
